Laboratory results from US11414387B2, “Oxoacridinyl acetic acid derivatives and methods of use” (Stingthera, Inc., priority 2017, dated 2022).

Assays:
hSTING-CTD = hSTING-CTD (Homo sapiens (Human), UniProt Q86WV6); assay: Human STING protein FP competition concentration response assay; format: binding
Procedure: A validated STING ligand, such as c-di-GMP, which is labeled with a read-out signal (e.g., a fluorescence signal such as fluorescein), is mixed with STING-CTD (e.g., mouse STING-CTD or human STING-CTD) with or without the presence of a compound of the present application. Changes in the read-out signal are measured (e.g., by fluorescence anisotropy) to determine the binding of the compound to STING-CTD.
Fluorescein labeled c-di-GMP, a validated STING ligand, was mixed with recombinant hSTING-CTD in a homogenous assay format with or without the presence of a compound of the present application (titrated) in PBS in black 384-well plates (10 μL per well). The fluorescence anisotropy was determined on a PerkinElmer EnVisions multi-mode plate reader. The plate can be read immediately after mixing the reagents or after a few hours without change of signals.
• 1) hSTING (Supplier: HDB) • 2) 2′-Fluo-AHC-c-di GMP (BIOLOG #F009) • 3) 2′3′-cGAMP (BIOLOG #C161) • 4) DMXAA (InvivoGen #tlrl-dmx) • 5) DMSO (Sigma, #D5879-100 mL) • 6) 10×PBS(HDB #MCP-020) • 7) Assay plate, 384-well black plate, solid black bottom (Greiner #784076) • 8) Compound dilution intermediate plate, 384 LDV plate (Labcyte #LP-0200) • 9) Liquid handler, ECHO550 (Labcyte) • 10) Liquid handler, Bravo (Aglient) • 11) Reader, Envision (PerkinElmer) • 12) Centrifuge (Eppendorf) • 13) Multichannel Pipette (Raining) • 14) 10 ml Reservoir (Corning) • 15) 15 ml centrifuge tube (Corning) • 16) Adhesive Plate seals (BioRad) Compound Preparation • a) Containers of each compound were centrifuged at 1000 rpm for 5 min. • b) Compounds were dissolved in DMSO at 30 mM. • c) Compounds were sufficiently vortexed, and centrifuged at 1000 rpm for 1 min. • d) 16 uL of the compound solution was transferred into a LDV Compound Plate. • e) 2-fold serial dilutions of the compound solution were made with DMSO, and 14 concentrations were made in the 384-well LDV Compound Plate. • f) The LDV plate was spun at 1000 rpm for 60 sec and sealed with foil (stored at −20° C. if not used immediately). • g) 335 nL of each compound from the LDV Compound Plate was transferred to Assay Plate (ECHO550). Probe Preparation • a) 200 uM probe stock (2′-Fluo-AHC-c-diGMP) was diluted by ddH2O to 6 uM working concentration. • b) 10-12 uL 6 uM working solution of probe was transferred into the LDV plate. • c) 50 nL per well 6 uM working solution of probe was transferred from the LDV plate to each well of the empty Assay Plate (Greiner 784076) by ECHO550 Buffer mode. • d) Probe final concentration was 30 nM when assay system was 10 uL. • e) The Assay Plate was spun at 1000 rpm for 1 min. Compound Addition • a) After the LDV Compound Plate was prepared, 335 nL compound (ECHO550 DMSO mode) was transferred from the LDV Compound Plate into the Assay Plate (Greiner 784076) containing 50 nL probe in each well according to the Assay Plate layout. • b) DMSO final concentration was 3.35% when assay system was 10 uL. • c) The Assay Plate was spun at 1000 rpm for 1 min. Protein Addition • a) Aliquot of hSTING protein was thawed on ice, briefly to generate uniform solution. • b) 55 uM stock protein was diluted in 1×PBS assay buffer to generate 10 uM final solutions. • c) For test compound and ZPE wells, 10 μL per well of 10 uM protein solutions was added into the Assay Plate containing both the probe and test compounds or DMSO using multichannel pipette. • d) For HPE wells, 10 μL/well of 1×PBS assay buffer instead of protein was added into the Assay Plate containing both the probe and DMSO using multichannel pipette. • e) The Assay Plate was spun at 1000 rpm for Imin. • f) The Assay Plate was incubated at r.t. for 10-20 min.
The EnVision plate reader was used to record the FA value of each well immediately after mixing the reagents or after a few hours without change of signals.
The raw data and calculated data (Fluorescence anisotropy (FA)) was exported from the EnVision reader. […]

STING protein = STING protein (Homo sapiens (Human), UniProt Q86WV6, H232R); assay: Cell based reporter assay of IRF activation (IRF-luciferase), THP1-dual-KI R232; conditions: read-out: THP1-dual-KI R232_IRF(Luciferase)_Activity Maximum measured (%)
STING protein, sequence (Q86WV6 whole entry H232R): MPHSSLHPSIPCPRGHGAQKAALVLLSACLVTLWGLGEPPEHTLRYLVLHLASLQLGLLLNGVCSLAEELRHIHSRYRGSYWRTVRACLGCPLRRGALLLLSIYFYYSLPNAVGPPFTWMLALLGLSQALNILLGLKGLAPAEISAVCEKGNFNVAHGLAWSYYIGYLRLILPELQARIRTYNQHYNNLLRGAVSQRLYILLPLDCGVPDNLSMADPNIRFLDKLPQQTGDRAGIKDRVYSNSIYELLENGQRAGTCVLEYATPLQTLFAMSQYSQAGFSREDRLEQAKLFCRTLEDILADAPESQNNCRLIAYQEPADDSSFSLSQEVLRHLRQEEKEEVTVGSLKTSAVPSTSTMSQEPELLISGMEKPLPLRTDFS

mSTING = mSTING (Mus musculus, UniProt Q3TBT3); assay: Radiometric filtration binding competition assay, mSTING
Procedure: A radiometric filtration binding competition assay was performed to quantify the binding affinity of compounds of the present application for the human or mouse STING protein, or associated HAQ human isoform. […] The resulting dose response was fit by non-linear regression to determine an IC50 value, from which a Ki value for each compound was extrapolated.
The resulting complexes were then filtered, dried, and scintillation fluid was added and the remaining radio signal was measured to determine the degree of compound ligand inhibition. This assay format was optimized for both the WT and HAQ isoforms of the human protein and the mouse orthologue protein.
Probe Concentration: Minimum concentration that achieved max assay window • g. Assay Format: Scintillation Proximity Bead or Filtration Binding Plate • h. […] Assay incubation times for successive incubation steps
WT-hSWAT: WT_FBA_HIS-SUMO-hSWAT IC50 (μM) (“WT”=Wild-type); HAQ-hSWAT: HAQ_FBA_HIS-SUMO-hSWAT IC50 (μM) (“HAQ”=human HAQ allele of STING protein); and WT-mSWAT: MOUSE_FBA_HIS-SUMO-mnSWAT IC50 (μM) which is the mouse isoform of STING protein.

mSTING-R232 = mSTING-R232 (Mus musculus, UniProt Q3TBT3); assay: STING differential scanning fluorimetry (DSF) assay, mouse STING; conditions: net shift in melting temperature
hSTING-WT = hSTING-WT (Homo sapiens (Human), UniProt Q86WV6, H232R); assay: Radiometric filtration binding competition assay, hSTING-WT
hSTING-WT, sequence (Q86WV6 140-379 H232R): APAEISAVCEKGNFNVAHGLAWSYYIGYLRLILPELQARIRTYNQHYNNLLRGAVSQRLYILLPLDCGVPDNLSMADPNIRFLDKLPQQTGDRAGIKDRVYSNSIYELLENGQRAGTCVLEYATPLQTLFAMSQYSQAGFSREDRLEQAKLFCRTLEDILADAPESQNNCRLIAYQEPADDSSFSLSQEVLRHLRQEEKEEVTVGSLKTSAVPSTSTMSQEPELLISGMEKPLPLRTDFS

hSTING-R232 = hSTING-R232 (Homo sapiens (Human), UniProt Q86WV6, H232R); assay: STING differential scanning fluorimetry (DSF) assay, WT human STING; conditions: WT (R232) human STING aa140-379, net shift in melting temperature
hSTING-R232, sequence (Q86WV6 140-379 H232R): as above

hSTING-CTD, sequence (Q86WV6 135-379): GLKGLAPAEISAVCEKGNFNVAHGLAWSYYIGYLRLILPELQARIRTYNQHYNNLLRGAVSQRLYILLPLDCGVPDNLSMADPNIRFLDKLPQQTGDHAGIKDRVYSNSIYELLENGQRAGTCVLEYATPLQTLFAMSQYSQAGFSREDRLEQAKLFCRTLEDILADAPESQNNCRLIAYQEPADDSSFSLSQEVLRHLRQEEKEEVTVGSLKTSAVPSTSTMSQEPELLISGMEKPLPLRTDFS

Compound	IC50 (hSTING-CTD)	other results
O=C(O)Cn1c2cc(F)ccc2c(=O)c2ccc(Cl)c(Cl)c21 [Compound 30]	> 1000 µM	–
O=C(O)Cn1c2cccc(F)c2c(=O)c2ccc(Cl)c(Cl)c21 [Compound 31]	500 to 1000 µM	–
CC(C)c1ccc(-c2ccc3c(c2)c(=O)c2ccccc2n3CC(=O)O)cc1 [Compound 41]	< 100 µM	–
COc1ccccc1CCc1ccc2c(c1)c(=O)c1ccccc1n2CC(=O)O [Compound 42]	500 to 1000 µM	–
COc1cccc(CCc2ccc3c(c2)c(=O)c2ccccc2n3CC(=O)O)c1 [Compound 43]	500 to 1000 µM	–
CSc1ccc2c(=O)c3ccc(SC)c(Cl)c3n(CC(=O)O)c2c1 [Compound 46]	> 1000 µM	–
O=C(O)Cn1c2ccccc2c(=O)c2c(Cl)c(Cl)ccc21 [Compound 48]	> 1000 µM	–
O=C(O)Cn1c2ccccc2c(=O)c2ccc(Cl)c(Br)c21 [Compound 51]	100 to 500 µM	–
O=C(O)Cn1c2ccccc2c(=O)c2ccc(Br)c(Cl)c21 [Compound 52]	100 to 500 µM	–
CC(C)c1ccc(-c2cccc3c2c(=O)c2ccc(Cl)c(Cl)c2n3CC(=O)O)cc1 [Compound 54]	100 to 500 µM	–
CC(C)c1cccc2c1c(=O)c1ccc(Cl)c(Cl)c1n2CC(=O)O [Compound 55]	500 to 1000 µM	–
O=C(O)Cn1c2ccccc2c(=O)c2c(Cl)ccc(Cl)c21 [Compound 56]	500 to 1000 µM	–
O=C(O)Cn1c2ccccc2c(=O)c2cc(Cl)c(Cl)cc21 [Compound 57]	> 1000 µM	–
O=C(O)Cn1c2ccccc2c(=O)c2cc(Cl)cc(Cl)c21 [Compound 58]	> 1000 µM	–
Cc1cc2c(=O)c3ccc(Cl)c(Cl)c3n(CC(=O)O)c2cc1N1CCCCC1 [Compound 62]	> 1000 µM	–
Cc1cc2c(=O)c3ccc(Cl)c(Cl)c3n(CC(=O)O)c2cc1N1CCOCC1 [Compound 63]	100 to 500 µM	–

Compound	IC50 (hSTING-CTD)	other results
Cc1cc2c(=O)c3ccc(Cl)c(Cl)c3n(CC(=O)O)c2cc1N(C)C [Compound 64]	100 to 500 µM	–
CC(C)c1ccc(-c2ccc3c(c2)c(=O)c2ccc(Cl)c(Cl)c2n3CC(=O)O)cc1 [Compound 72]	< 100 µM	–
Cc1ccccc1CCc1ccc2c(c1)c(=O)c1ccccc1n2CC(=O)O [Compound 74]	100 to 500 µM	–
Cc1ccc2c(=O)c3cc(CCC4CCCCC4)ccc3n(CC(=O)O)c2c1 [Compound 76]	100 to 500 µM	–
O=C(O)Cn1c2cc(Br)ccc2c(=O)c2ccc(Cl)c(Cl)c21 [Compound 79]	100 to 500 µM	–
O=C(O)Cn1c2ccccc2c(=O)c2ccc(Cl)c(F)c21 [Compound 84]	> 1000 µM	–
CC1(C)c2ccccc2N(CC(=O)O)c2ccc(Br)cc21 [Compound 86]	500 to 1000 µM	–
O=C(O)Cn1c2ccc(CCc3ccccc3)cc2c(=O)c2ccc(Cl)c(Cl)c21 [Compound 88]	100 to 500 µM	–
O=C(O)CN1c2ccccc2Cc2cc(CCC3CCCCC3)ccc21 [Compound 90]	500 to 1000 µM	–
CC(C)c1ccc2c(=O)c3ccc(Cl)c(OC[C@@H](C)O)c3n(CC(=O)O)c2c1 [Compound 327]	–	Emax (STING protein): < 5%; IC50 (mSTING): > 300 µM; MOUSE DSF_6xHIS-SUMO Tm Shift (° C.) (mSTING-R232): C (“C” = 5-15° C.); IC50 (hSTING-WT): > 300 µM; WT_DSF_hSWAT Tm Shift (° C.) (hSTING-R232): C (“C” = 2-7° C,)
O=C(O)Cn1c2ccccc2c(=O)c2ccc(Cl)c(OCCO)c21 [Compound 328]	–	Emax (STING protein): < 5%; IC50 (mSTING): > 300 µM; MOUSE DSF_6xHIS-SUMO Tm Shift (° C.) (mSTING-R232): C (“C” = 5-15° C.); IC50 (hSTING-WT): > 300 µM; WT_DSF_hSWAT Tm Shift (° C.) (hSTING-R232): B (“B” = 0-2° C.)
O=C(O)Cn1c2ccccc2c(=O)c2ccc(Cl)c(OCCCO)c21 [Compound 329]	–	Emax (STING protein): < 5%; IC50 (mSTING): > 300 µM; MOUSE DSF_6xHIS-SUMO Tm Shift (° C.) (mSTING-R232): C (“C” = 5-15° C.); IC50 (hSTING-WT): > 300 µM; WT_DSF_hSWAT Tm Shift (° C.) (hSTING-R232): B (“B” = 0-2° C.)
COCCOc1c(Cl)ccc2c(=O)c3ccccc3n(CC(=O)O)c12 [Compound 330]	–	Emax (STING protein): < 5%; IC50 (mSTING): > 300 µM; MOUSE DSF_6xHIS-SUMO Tm Shift (° C.) (mSTING-R232): B (“B” = 0-5° C.); IC50 (hSTING-WT): > 300 µM; WT_DSF_hSWAT Tm Shift (° C.) (hSTING-R232): B (“B” = 0-2° C.)
CN(C)c1c(Cl)ccc2c(=O)c3ccc(Nc4ccccc4)cc3n(CC(=O)O)c12 [Compound 332]	–	Emax (STING protein): > 50%; IC50 (mSTING): < 20 µM; MOUSE DSF_6xHIS-SUMO Tm Shift (° C.) (mSTING-R232): D (“D” > 15° C.); IC50 (hSTING-WT): < 20 µM; WT_DSF_hSWAT Tm Shift (° C.) (hSTING-R232): D (“D” > 7° C.)
COc1cccc2c(=O)c3ccc(Cl)c(OC)c3n(CC(=O)O)c12 [Compound 333]	–	Emax (STING protein): 5 to 25%; IC50 (mSTING): > 300 µM; MOUSE DSF_6xHIS-SUMO Tm Shift (° C.) (mSTING-R232): B (“B” = 0-5° C.); IC50 (hSTING-WT): > 300 µM; WT_DSF_hSWAT Tm Shift (° C.) (hSTING-R232): B (“B” = 0-2° C.)

Second part, led by results:

IC50 (hSTING-CTD)	Compound	other results
500 to 1000 µM	Cc1cc(Cl)c2c(c1)c(=O)c1ccc(C)cc1n2CC(=O)O [Compound 38]	–
100 to 500 µM	O=C(O)Cn1c2ccccc2c(=O)c2cc(C#CC3CCCCC3)ccc21 [Compound 39]	–
< 100 µM	O=C(O)Cn1c2ccccc2c(=O)c2cc(CCC3CCCCC3)ccc21 [Compound 40]	–
> 1000 µM	CCc1cccc2c1c(=O)c1ccc(Cl)c(Cl)c1n2CC(=O)O [Compound 49]	–
< 100 µM	O=C(O)Cn1c2cc(-c3ccccc3)ccc2c(=O)c2ccc(Cl)c(Cl)c21 [Compound 65]	–
100 to 500 µM	CC1(C)CCC=C(c2ccc3c(c2)c(=O)c2ccccc2n3CC(=O)O)C1 [Compound 73]	–
100 to 500 µM	Cc1ccc2c(=O)c3cc(-c4ccc(C(C)C)cc4)ccc3n(CC(=O)O)c2c1 [Compound 77]	–
> 1000 µM	Cc1ccc2c(=O)c3cc(Br)ccc3n(CC(=O)O)c2c1 [Compound 78]	–
100 to 500 µM	O=C(O)Cn1c2ccccc2c(=O)c2cc(/C=C\c3ccccc3)ccc21 [Compound 80]	–
> 1000 µM	O=C(O)Cn1c2ccccc2c(=O)c2ccc(F)c(Cl)c21 [Compound 83]	–
100 to 500 µM	O=C(O)Cn1c2ccc(Br)cc2c(=O)c2ccc(Cl)c(Cl)c21 [Compound 89]	–
